Structures are written as SMILES.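 Values below derive from 48-hour exposures of cells grown in 96-well plates, with endpoints linearly interpolated between the two concentrations bracketing the appropriate inhibition level. GI50 marks 50% less growth.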 Calls of active or inactive are those of the source. No stated cut-off is given here; in the data, active = GI50 up to about 1.1 µM and inactive = higher.

Test systems include A498; HOP-92; Hs-578T; K562; M14; MDA-N; Malme-3M; NCI-H226; NCI-H460; OVCAR-5; OVCAR-8; PC-3; RPMI-8226; RXF 393; SF-539; SK-MEL-28; SK-OV-3; SNB-19; TK-10; U-251.
Holding throughout (test): inhibition of tumour cell growth, NCI panel, 48 h

For the molecule `C=C1C(=O)[C@@]23CC[C@@H]4[C@@]5(C)CCC[C@@]4(OC5=O)[C@@]2(C)CC[C@@H]1C3`, the GI50 in the assay on A498 is 3.24 µM (inactive); in the assay on HOP-92, 4.48 µM (inactive); in the assay on Hs-578T, 1.93 µM (inactive); in the assay on K562, 0.667 µM (active); with M14, 2.17 µM (inactive); with MDA-N, 1.87 µM (inactive). The GI50 in the assay with Malme-3M was 1.6 µM (inactive); in the assay with NCI-H226, 2.08 µM (inactive); in the assay with NCI-H460 it was 1.41 µM (inactive); in the assay with OVCAR-5 it was 2.12 µM (inactive); with OVCAR-8 it was 2.3 µM (inactive); in the assay with PC-3, 1.76 µM (inactive). Moreover, the GI50 in the assay on RPMI-8226 was 0.508 µM (active); with RXF 393, 1.01 µM (active); with SF-539, 2.12 µM (inactive); with SK-MEL-28, 2.74 µM (inactive); with SK-OV-3, 9.23 µM (inactive); with SNB-19, 3.23 µM (inactive). Also, the GI50 in the assay on TK-10 is 1.11 µM (active); in the assay with U-251, 1.97 µM (inactive).
For the molecule `C/C(=N\Nc1cc(CN2CCCC2)c(-c2ccc(Cl)cc2)nn1)C(=O)O`, the GI50 in the assay with A498, with HOP-92, in the assay on Hs-578T, in the assay with K562, with M14 and in the assay on MDA-N was > 100 µM (inactive) throughout. For the same molecule, the GI50 with Malme-3M, with NCI-H226, with NCI-H460, in the assay with OVCAR-5, in the assay with OVCAR-8 and with PC-3 was > 100 µM (inactive) each time. In addition, the GI50 in the assay with RPMI-8226, with RXF 393, with SF-539, in the assay with SK-MEL-28, in the assay on SK-OV-3 and in the assay with SNB-19 was > 100 µM (inactive) in each case. Further, the GI50 in the assay on TK-10 and with U-251 was > 100 µM (inactive) each time.
As for `c1ccc(COC[C@H]2C3OCC([C@H](OCc4ccccc4)[C@H]3OCc3ccccc3)N2Cc2ccccc2)cc1` (stereo partly specified), the GI50 with A498 is 33.7 µM (inactive); with HOP-92, > 57.1 µM (inactive); with Hs-578T, > 49.1 µM (inactive); in the assay on K562, 12.4 µM (inactive); in the assay with M14 it was > 54 µM (inactive); with MDA-N, > 53.2 µM (inactive). The GI50 with Malme-3M was 27.9 µM (inactive); in the assay on NCI-H226 it was 17.7 µM (inactive); with NCI-H460 it was > 56.4 µM (inactive); with OVCAR-5, > 52.4 µM (inactive); with OVCAR-8, > 50 µM (inactive); in the assay with PC-3, 20.2 µM (inactive). For the same molecule, the GI50 is 15.8 µM (inactive) in the assay with RPMI-8226; > 100 µM (inactive) in the assay with RXF 393; > 59 µM (inactive) with SF-539; > 53.2 µM (inactive) with SK-MEL-28; > 56.4 µM (inactive) with SK-OV-3; > 49.3 µM (inactive) in the assay with SNB-19. Also, the figures for the GI50 in the assay on TK-10 and with U-251 were > 52.6 µM (inactive) and 26.2 µM (inactive), respectively.
Consider `COc1ccccc1OC(=O)/C=C/c1ccccc1`, for which the GI50 in the assay with A498, in the assay on HOP-92, in the assay with Hs-578T, in the assay with M14, in the assay with MDA-N and in the assay with Malme-3M was > 100 µM (inactive) throughout. Moreover, the GI50 in the assay with NCI-H226 was > 100 µM (inactive); in the assay with NCI-H460, 33 µM (inactive); with OVCAR-5, > 100 µM (inactive); with OVCAR-8, > 100 µM (inactive); in the assay with PC-3, > 100 µM (inactive); with RPMI-8226, 5.33 µM (inactive). Besides, the GI50 was > 100 µM (inactive) in the assay on RXF 393; > 100 µM (inactive) with SF-539; > 100 µM (inactive) with SK-MEL-28; > 100 µM (inactive) with SK-OV-3; > 100 µM (inactive) in the assay on SNB-19; 84.1 µM (inactive) in the assay with TK-10. Further, the GI50 in the assay with U-251 is > 100 µM (inactive).
Consider `COC/C=C\[C@]1(O)CCCC[C@@H]1CC(OC)OC`, for which the GI50 with A498 was > 100 µM (inactive); in the assay with HOP-92 it was > 100 µM (inactive); in the assay on Hs-578T it was > 100 µM (inactive); in the assay on K562 it was 43.5 µM (inactive); with M14, > 100 µM (inactive); with MDA-N it was > 100 µM (inactive). Further, the GI50 in the assay on Malme-3M, with NCI-H226, in the assay on NCI-H460, with OVCAR-5, in the assay on OVCAR-8 and in the assay on PC-3 was > 100 µM (inactive) throughout. In addition, the GI50 was 97.7 µM (inactive) in the assay on RPMI-8226; > 100 µM (inactive) in the assay on RXF 393; > 100 µM (inactive) with SF-539; > 100 µM (inactive) in the assay on SK-MEL-28; > 100 µM (inactive) with SK-OV-3; > 100 µM (inactive) in the assay on SNB-19. Further, the GI50 in the assay on TK-10 and in the assay with U-251 was > 100 µM (inactive) each time.
On to `CCOC(=O)C1C(c2ccco2)C2(C#N)C(=N)OC1(C)C2(C#N)C#N` (stereo unspecified), for which the GI50 in the assay with A498, with HOP-92, in the assay on Hs-578T, with K562, in the assay with M14 and in the assay on MDA-N was > 100 µM (inactive) throughout. Besides, the GI50 in the assay with Malme-3M, in the assay on NCI-H226, with OVCAR-5, with OVCAR-8, with PC-3 and in the assay with RPMI-8226 was > 100 µM (inactive) each time. The GI50 with RXF 393, in the assay with SF-539, in the assay with SK-OV-3, with SNB-19, with TK-10 and in the assay on U-251 was > 100 µM (inactive) throughout.
As for `O=c1c2cnccc2cc2c3ccccc3ccn12`, the GI50 with A498 is > 100 µM (inactive); in the assay on HOP-92, > 100 µM (inactive); with Hs-578T it was 71.8 µM (inactive); with K562, 37.9 µM (inactive); in the assay with M14, > 100 µM (inactive); in the assay with MDA-N, > 100 µM (inactive). Also, the GI50 is 57.3 µM (inactive) in the assay with Malme-3M; > 100 µM (inactive) in the assay on NCI-H226; 5.78 µM (inactive) with NCI-H460; > 100 µM (inactive) in the assay on OVCAR-5; 11.6 µM (inactive) with OVCAR-8; 77.8 µM (inactive) in the assay on PC-3. Besides, the GI50 is 19.9 µM (inactive) in the assay on RPMI-8226; > 100 µM (inactive) with RXF 393; > 100 µM (inactive) in the assay with SF-539; > 100 µM (inactive) with SK-MEL-28; > 100 µM (inactive) in the assay with SK-OV-3; > 100 µM (inactive) in the assay on SNB-19. For the same molecule, the GI50 with TK-10 is 24.3 µM (inactive); with U-251, 68.4 µM (inactive).
For the molecule `COc1nc2ncc([C@@H](O)[C@H](O)CO)nc2c(=O)n1C`, the GI50 in the assay with A498, with HOP-92, in the assay on Hs-578T, in the assay on K562, in the assay on M14 and with MDA-N was > 100 µM (inactive) throughout. Further, the GI50 in the assay with Malme-3M, with NCI-H226, in the assay on NCI-H460, in the assay with OVCAR-5, with OVCAR-8 and with PC-3 was > 100 µM (inactive) throughout. For the same molecule, the GI50 in the assay on RPMI-8226, with RXF 393, in the assay on SF-539, with SK-MEL-28, with SK-OV-3 and with SNB-19 was > 100 µM (inactive) each time. The GI50 with TK-10 and with U-251 was > 100 µM (inactive) each time.
Turning to `O=C1C(NCCc2cc(Br)c(O)c(Br)c2)=CC(=O)c2ncccc21`, the GI50 with A498 was 4.08 µM (inactive); in the assay on HOP-92, 28.1 µM (inactive); in the assay with Hs-578T, 3.1 µM (inactive); in the assay with K562, 3.21 µM (inactive); in the assay with M14, 2.51 µM (inactive); in the assay on MDA-N it was 1.82 µM (inactive). Further, the GI50 in the assay on Malme-3M was 1.26 µM (inactive); in the assay on NCI-H226 it was 2.29 µM (inactive); in the assay with NCI-H460, 2.37 µM (inactive); in the assay with OVCAR-5, 6.52 µM (inactive); in the assay with OVCAR-8, 3.85 µM (inactive); in the assay with PC-3, 20.9 µM (inactive). Further, the GI50 in the assay on RPMI-8226 was 4.79 µM (inactive); with RXF 393, 7.93 µM (inactive); in the assay with SF-539, 2.37 µM (inactive); with SK-MEL-28, 3.21 µM (inactive); in the assay on SK-OV-3, 14.8 µM (inactive); in the assay on SNB-19, 3.86 µM (inactive). In addition, the GI50 in the assay on TK-10 is 17.1 µM (inactive); in the assay on U-251, 5.55 µM (inactive).
In the case of `CC(C)=CCOc1cc(NC(=S)c2ccsc2C)ccc1Cl`, the GI50 in the assay on A498 is 27.3 µM (inactive); with HOP-92, 5.87 µM (inactive); with Hs-578T it was 12.3 µM (inactive); with K562, 7.48 µM (inactive); in the assay with MDA-N it was > 100 µM (inactive); in the assay on Malme-3M it was 49 µM (inactive). Further, the GI50 in the assay on NCI-H226 was 13.5 µM (inactive); in the assay on NCI-H460, 12.4 µM (inactive); with OVCAR-5 it was 86.7 µM (inactive); in the assay with OVCAR-8 it was 44.4 µM (inactive); in the assay with PC-3, 17.8 µM (inactive); with RPMI-8226 it was 15.7 µM (inactive). Moreover, the GI50 is 27.9 µM (inactive) in the assay on RXF 393; 55.1 µM (inactive) with SF-539; > 100 µM (inactive) in the assay with SK-MEL-28; 24.5 µM (inactive) in the assay with SK-OV-3; 31.8 µM (inactive) with SNB-19; 93.5 µM (inactive) with TK-10. For the same molecule, the GI50 in the assay with U-251 is 20.7 µM (inactive).

Source of the values: ChEMBL document CHEMBL1201862, “PubChem BioAssay data set” (2004).
